Data set [1] in a line: Tarnish-monitoring experiments in a dishwasher, monitors visually ranked 0 to 6 against the Example 1 reference scale. The note with it: general description, compositions containing the compound. How it is done:
The wash program consisted of a pre-wash at 40°C, a mainwash at 55°C, two intermediate rinses, and a final rinse at 65°C.
The mainwash pH with these compositions was typically 8.7. Silver-plated spoons (2 per run) were the monitors used in the test. The spoons were supplied by Oneida Silversmiths, USA. The monitors were washed in a commercially available hand dishwash liquid and rinsed with deionized water and acetone before use. In the dishwasher the monitors were kept apart from each other in the cutlery basket. At the end of a single-run machine program, the monitors were visually analyzed for the presence of colours and the loss of gloss.
This ranking of spoons was used as a reference scale for all subsequent Examples.

Data set [2] is described as follows: Silver plates held in the compositions for 25 minutes, evaluated for tarnishing. As to conditions: for Effective Silver Anti-Tarnishing: 4 wt.% epsilon-phthalimido peroxyhexanoic acid. How it is done:
A comparison of anti-tarnishing performance of purine class compounds within the scope of the invention and azole compounds outside the invention was conducted. The selected compounds were incorporated in an amount of 1 wt.% in a machine dishwashing composition containing 4 wt.% epsilon-phthalimido peroxyhexanoic acid as the bleaching agent. The pH values of the compositions were adjusted by the addition of a 50% solution of sodium hydroxide or concentrated sulfuric acid, as necessary.
(§1) Copper plates and silver plates were held in each of the compositions for 25 minutes, removed, rinsed with deionized water and evaluated for tarnishing. […]
A comparison of anti-tarnishing performance of 1,3-N azole compounds within the scope of the invention and azole compounds outside the invention was conducted. The selected compounds were incorporated in an amount of 1 wt.% in a machine dishwashing composition containing 4 wt.% epsilon-phthalimido peroxyhexanoic acid as the bleaching agent. The pH values of the compositions were adjusted by the addition of a 50% solution of sodium hydroxide or concentrated sulfuric acid, as necessary.
as §1

Data set [3] in a line: physchem. Format: physicochemical. How it is done:
As used herein, the term "pKa" means a pH value at which 50% of the heterocyclic ring moieties of the compound (particularly the five-membered rings in the case of the purine class compounds) are in ionic form.
The pH of this solution was adjusted to 3.0 with H2SO4. The solution was then titrated with 1N NaOH to pH 11.0. A plot of mls. NaOH vs. pH for each sample was prepared. The pKa of the compound is that point where the maximum change in pH as a function of mls. NaOH is observed.

The mark [4] stands for this setting: Example 5: 1 wt.% compound, pH of composition 8.6.
The mark [5] stands for this setting: Example 13: 1 wt.% compound, pH of composition 8.6.
Setting [6] is: Example 13, Tables 20 and 21, read-out: pKa of compounds.
Setting [7] is: Example 5: 1 wt.% compound, pH of composition 8.5.
The mark [8] stands for this setting: Example 5: 1 wt.% compound, pH of composition 11.0.
Setting [9] is: Example 13: 1 wt.% compound, pH of composition 8.5.
Setting [10] is: Example 13: 1 wt.% compound, pH of composition 11.0.

Turning to `c1ccc2[nH]ncc2c1` [indazole, reference compound], in data set [1], the “prevention of heavy tarnishing of silver and silver-plated articles, in words” value (from here on “prevention of heavy tarnishing … in words”) is recorded as “substantially ineffective”.

With `Nc1nn[nH]n1` [4-amino-1,2,3,5-tetrazole], the “effectiveness as a silver anti-tarnishing agent, in words” value in data set [2] (Example 13, pH of 8.8) was “not effective”. Also, in data set [2] (Example 13: 1 wt.% compound, pH of composition 8.8), the “Effective Silver Anti-Tarnishing” value was “No (A tarnish score of 3 or less was considered effective as a silver anti-tarnishing compound)”. Also, in data set [3], the pKa (as a rule, the pH at which an ionisable group is half protonated) is 8.1.

`Nc1ncnc2nc[nH]c12` [Adenine]: the “prevention of silver tarnishing, in words” value is reported as “did not prevent tarnishing” in data set [2] (Example 5, pH 6.9) and “prevented silver tarnishing” in data set [2] (Example 5, pH 8.6). The “Effective Silver Anti-Tarnishing” value in data set [2] (Example 5: 1 wt.% compound, pH of composition 6.9) is “No (A tarnish score of 3 or less was considered effective as a silver anti-tarnishing compound)”; in data set [2] (setting [4]), “Yes (A tarnish score of 3 or less was considered effective as a silver anti-tarnishing compound)”. The pKa in data set [3] was 7.2.

As to `c1cc[nH]c1` [Pyrrole, reference compound], the “Effective Silver Anti-Tarnishing” value in data set [2] (setting [4]) and in data set [2] (setting [5]) was “No (A tarnish score of 3 or less was considered effective as a silver anti-tarnishing compound)” in each case. The “prevention of heavy tarnishing … in words” value in data set [1] is reported as “substantially ineffective”.

For `N[C@@H](Cc1c[nH]cn1)C(=O)O` [Histidine], in data set [2] (setting [5]), the “Effective Silver Anti-Tarnishing” value was “Yes (A tarnish score of 3 or less was considered effective as a silver anti-tarnishing compound)”.

With `c1c[nH]cn1` [Imidazole], the “Effective Silver Anti-Tarnishing” value in data set [2] (setting [5]) is listed as “Yes (A tarnish score of 3 or less was considered effective as a silver anti-tarnishing compound)”. The pKa in data set [3] (setting [6]) worked out at 6.9.

On to `O=c1[nH]c(=O)c2[nH]c(=O)[nH]c2[nH]1` [Uric Acid], for which the “Effective Silver Anti-Tarnishing” value in data set [2] (setting [4]) is listed as “Yes (A tarnish score of 3 or less was considered effective as a silver anti-tarnishing compound)”. The compound also gave a pKa in data set [3] of 4.6.

In the case of `O=c1[nH]c(=O)c2[nH]cnc2[nH]1` [Xanthine], the “Effective Silver Anti-Tarnishing” value in data set [2] (setting [4]) was “Yes (A tarnish score of 3 or less was considered effective as a silver anti-tarnishing compound)”. The compound also showed a pKa in data set [3] of 7.

On to `c1ccc(-c2ncc[nH]2)cc1` [2-Phenylimidazole, reference compound], for which the “Effective Silver Anti-Tarnishing” value in data set [2] (setting [7]), in data set [2] (setting [8]), in data set [2] (setting [9]) and in data set [2] (setting [10]) was “No (A tarnish score of 3 or less was considered effective as a silver anti-tarnishing compound)” throughout. For the same compound, in data set [2] (Example 13, pH 11.0), the “prevention of silver tarnishing, in words” value is given as “did not prevent silver tarnishing”. The pKa in data set [3] was determined as 8.8.

As to `c1ccc2[nH]cnc2c1` [Benzimidazole], the “Effective Silver Anti-Tarnishing” value in data set [2] (setting [5]) is on record as “Yes (A tarnish score of 3 or less was considered effective as a silver anti-tarnishing compound)”. The same compound had a pKa of compounds in data set [3] of 5.5.

In the case of `O=c1[nH]cnc2nc[nH]c12` [Hypoxanthine], the “Effective Silver Anti-Tarnishing” value in data set [2] (setting [4]) was “Yes (A tarnish score of 3 or less was considered effective as a silver anti-tarnishing compound)”. In data set [3] (pKa of compounds), this compound yielded a pKa of 6.

On to `c1cn[nH]c1` [Pyrazole, reference compound], for which the “Effective Silver Anti-Tarnishing” value in data set [2] (setting [4]) and in data set [2] (setting [5]) was “No (A tarnish score of 3 or less was considered effective as a silver anti-tarnishing compound)” in each case. Further, the pKa in data set [3] is 11.5. Moreover, in data set [1], the “prevention of heavy tarnishing … in words” value is given as “substantially ineffective”.

Take `Nc1nc2nc[nH]c2c(=O)[nH]1` [Guanine]: the “prevention of silver tarnishing, in words” value in data set [2] (Example 5, pH 7.0) is “did not prevent tarnishing”; in data set [2] (Example 5, pH 8.6) it was “prevented silver tarnishing”. In addition, the “Effective Silver Anti-Tarnishing” value in data set [2] (Example 5: 1 wt.% compound, pH of composition 7.0) is listed as “No (A tarnish score of 3 or less was considered effective as a silver anti-tarnishing compound)”; in data set [2] (setting [4]) it was “Yes (A tarnish score of 3 or less was considered effective as a silver anti-tarnishing compound)”. In addition, the pKa in data set [3] came to 6.7.

As for `c1cncnc1` [pyrimidine, reference compound], the “prevention of heavy tarnishing … in words” value in data set [1] was “substantially ineffective”.

Take `Nc1nc[nH]n1` [3-amino-1,2,4-triazole]: the “Effective Silver Anti-Tarnishing” value in data set [2] (Example 13: 1 wt.% compound, pH of composition 8.3) is “Yes (A tarnish score of 3 or less was considered effective as a silver anti-tarnishing compound)”. In data set [3], this compound registered a pKa of 7.3.

On to `N=C(N)NCCC[C@H](N)C(=O)O` [Arginine, reference compound], for which the “Effective Silver Anti-Tarnishing” value in data set [2] (setting [4]) and in data set [2] (setting [5]) was “No (A tarnish score of 3 or less was considered effective as a silver anti-tarnishing compound)” throughout. Further, the pKa in data set [3] came out at 9.1. This compound displayed a pKa of compounds in data set [3] of 9.1.

`O=[N+]([O-])c1ccc2cn[nH]c2c1` [6-Nitroindazole, reference compound]: the “Effective Silver Anti-Tarnishing” value in data set [2] (setting [7]), in data set [2] (setting [8]), in data set [2] (setting [9]) and in data set [2] (setting [10]) was “No (A tarnish score of 3 or less was considered effective as a silver anti-tarnishing compound)” each time. The compound further registered a pKa in data set [3] of 6.8.

In the case of `c1nnn[nH]1` [1,2,3,5-Tetrazole], the “pH of compositions in which the compound is effective” value in data set [2] (Example 13) is on record as “greater than 9.4”. Further, the “effectiveness as a silver anti-tarnishing agent, in words” value in data set [2] (Example 13, pH of 8.5) is “not effective”; in data set [2] (Example 13, pH of 9.5 and greater), “effective”. In addition, the “Effective Silver Anti-Tarnishing” value in data set [2] (setting [9]) is recorded as “No (A tarnish score of 3 or less was considered effective as a silver anti-tarnishing compound)”; in data set [2] (Example 13: 1 wt.% compound, pH of composition 9.5) it was “Yes (A tarnish score of 3 or less was considered effective as a silver anti-tarnishing compound)”; in data set [2] (Example 13: 1 wt.% compound, pH of composition 10.5) it was “Yes (A tarnish score of 3 or less was considered effective as a silver anti-tarnishing compound)”; in data set [2] (setting [10]), “Yes (A tarnish score of 3 or less was considered effective as a silver anti-tarnishing compound)”. Besides, the pKa in data set [3] (setting [6]) is 8.4.

For the compound `Oc1ncnc2[nH]ncc12` [Allopurinol], the “Effective Silver Anti-Tarnishing” value in data set [2] (setting [4]) is listed as “Yes (A tarnish score of 3 or less was considered effective as a silver anti-tarnishing compound)”. Besides, the pKa in data set [3] stood at 6.1.

These data come from patent EP0723577B1, “DETERGENT COMPOSITIONS CONTAINING SILVER ANTI-TARNISHING AGENTS” (UNILEVER N.V., priority 1993, dated 1995).
